Literature values, collected in article PMC4956231, “Molecular Mechanisms for Drug Hypersensitivity Induced by the Malaria Parasite’s Chloroquine Resistance Transporter” (PLoS Pathogens, 2016).

Assays:
[1] = system: P. falciparum line K1AM; settings: K1AM (163R,356V-PfCRT^K1); IC50 in line divided by IC50 in drug-sensitive reference strain; cited from earlier work
[2] = system: P. falciparum 106/1; settings: 106/1 (76K-PfCRT^K1); IC50 in line divided by IC50 in drug-sensitive reference strain; cited from earlier work

## CCN(CC)CCCC(C)Nc1ccnc2cc(Cl)ccc12 (centres unmarked) [CQ, chloroquine]
[1]
  Drug susceptibility (In vitro resistance index): 0.95
[2]
  Drug susceptibility (In vitro resistance index): 1.10 ± 0.06
